Experiments:
[1] = test system: antibodies in sera from SARS patients (sera 1a, 1b, 2, 6, 37, 62, London, SARS-yellow, SARS-green); assay type: binding, human; parameters: Binding of serum 6 to linear peptides of protein X1 of SARS-CoV Urbani / Binding of serum 37 to linear peptides of protein X1 of SARS-CoV Urbani / Binding of serum 6 to looped/cyclic peptide (PEPSCAN-ELISA) / Binding of serum 37 to looped/cyclic peptide (PEPSCAN-ELISA) / Binding of serum 37 to looped/cyclic peptides of protein X1 of SARS-CoV Urbani / Binding of serum 6 to linear peptides of protein X2 / Binding of serum 37 to linear peptides of protein X2 / Binding of serum 37 to looped/cyclic peptides of protein X2 of SARS-CoV Urbani / Binding of serum 6 to linear peptides of protein M of SARS-CoV Urbani / Binding of serum 37 to linear peptides of protein M of SARS-CoV Urbani / Binding of serum 6 to looped/cyclic peptides of protein M of SARS-CoV Urbani / Binding of serum 37 to looped/cyclic peptides of protein M of SARS-CoV Urbani / Binding of serum 6 to linear peptides of protein X3 of SARS-CoV Urbani / Binding of serum 37 to linear peptides of protein X3 of SARS-CoV Urbani / Binding of serum 37 to looped/cyclic peptides of protein X3 of SARS-CoV Urbani / Binding of serum 6 to linear peptides of protein X4 of SARS-CoV Urbani / Binding of serum 37 to linear peptides of protein X4 of SARS-CoV Urbani / Binding of serum 37 to looped/cyclic peptides of protein X4 of SARS-CoV Urbani / Binding of serum 6 to linear peptides of protein X5 of SARS-CoV Urbani / Binding of serum 37 to linear peptides of protein X5 of SARS-CoV Urbani / Binding of serum 37 to looped/cyclic peptides of protein X5 of SARS-CoV Urbani / Binding of serum 6 to linear peptides of protein N of SARS-CoV Urbani / Binding of serum 37 to linear peptides of protein N of SARS-CoV Urbani / Binding of serum 6 to linear peptide (PEPSCAN-ELISA) / Binding of serum 1a to looped/cyclic peptides of protein N of SARS-CoV Urbani / Binding of serum 1b to looped/cyclic peptides of protein N of SARS-CoV Urbani / Binding of serum 2 to looped/cyclic peptides of protein N of SARS-CoV Urbani / Binding of serum 6 to looped/cyclic peptides of protein N of SARS-CoV Urbani / Binding of serum 37 to looped/cyclic peptides of protein N of SARS-CoV Urbani / Binding of serum 62 to looped/cyclic peptides of protein N of SARS-CoV Urbani / Binding of serum London to looped/cyclic peptides of protein N of SARS-CoV Urbani / Binding of serum SARS-green to looped/cyclic peptides of protein N of SARS-CoV Urbani: unit not given here
[2] = test system: control sera (pooled serum of ten healthy LUMC hospital workers; commercial negative donor pooled serum from the Dutch bloodbank); assay type: binding, human; parameters: Binding of Control serum LUMC to linear peptides / Binding of Control serum Blood-bank to linear peptides / Binding of Control serum LUMC to looped peptides / Binding of Control Serum Blood-Bank to Looped peptides / Binding of Control serum LUMC to linear peptides of the protein M of SARS-CoV Urbani / Binding of Control serum Blood-bank to linear peptides of the protein M of SARS-CoV Urbani / Binding of Control serum LUMC to looped peptides of the protein M of SARS-CoV Urbani / Binding of Control Serum Blood-Bank to Looped peptides of the protein M of SARS-CoV Urbani: unit not given here
[3] = test system: rabbit serum obtained by immunizing a rabbit with the SARS-CoV strain Frankfurt 1; assay type: binding; parameters: Binding of a rabbit serum to linear peptides / Binding of a rabbit serum to looped peptides / Rabbit serum linear peptides / Rabbit serum looped peptides / Binding of a rabbit serum to linear peptides of protein N of SARS-CoV Urbani (Rabbit serum linear peptides) / Binding of a rabbit serum to looped/cyclic peptides of protein N of SARS-CoV Urbani (Rabbit serum looped peptides): unit not given here

DIKDLPKEITVATSR
Binding of serum 1a to linear peptides of protein M of SARS-CoV Urbani [1]: 0.7 | Binding of serum 1a to looped/cyclic peptides of protein M of SARS-CoV Urbani [1]: 0.6 | Binding of serum 1b to linear peptides of protein M of SARS-CoV Urbani [1]: 0.5 | Binding of serum 1b to looped/cyclic peptides of protein M of SARS-CoV Urbani [1]: 0.6 | Binding of serum 2 to linear peptides of protein M of SARS-CoV Urbani [1]: 0.5 | Binding of serum 2 to looped/cyclic peptides of protein M of SARS-CoV Urbani [1]: 0.7 | Binding of serum 6 to linear peptides of protein M of SARS-CoV Urbani [1]: 0.5 | Binding of serum 6 to looped/cyclic peptides of protein M of SARS-CoV Urbani [1]: 0.8 | Binding of serum 37 to linear peptides of protein M of SARS-CoV Urbani [1]: 0.6 | Binding of serum 37 to looped/cyclic peptides of protein M of SARS-CoV Urbani [1]: 0.9 | Binding of serum 62 to linear peptides of protein M of SARS-CoV Urbani [1]: 0.5 | Binding of serum 62 to looped/cyclic peptides of protein M of SARS-CoV Urbani [1]: 0.7 | Binding of serum London to linear peptides of protein M of SARS-CoV Urbani [1]: 0.4 | Binding of serum London to looped/cyclic peptides of protein M of SARS-CoV Urbani [1]: 0.3 | Binding of serum SARS-green to linear peptides of protein M of SARS-CoV Urbani [1]: 0.5 | Binding of serum SARS-green to looped/cyclic peptides of protein M of SARS-CoV Urbani [1]: 0.4 | Binding of serum SARS-yellow to linear peptides of protein M of SARS-CoV Urbani [1]: 0.2 | Binding of serum SARS-yellow to looped/cyclic peptides of protein M of SARS-CoV Urbani [1]: 0.7 | Binding of Control Serum Blood-Bank to Looped peptides of the protein M of SARS-CoV Urbani [2]: 0.8 | Binding of Control serum Blood-bank to linear peptides of the protein M of SARS-CoV Urbani [2]: 0.6 | Binding of Control serum LUMC to linear peptides of the protein M of SARS-CoV Urbani [2]: 0.5 | Binding of Control serum LUMC to looped peptides of the protein M of SARS-CoV Urbani [2]: 0.9 | Rabbit serum linear peptides [3]: 0.2 | Rabbit serum looped peptides [3]: 0.3

DLPKEITVATSRTLS
Binding of serum 1a to linear peptides of protein M of SARS-CoV Urbani [1]: 0.7 | Binding of serum 1a to looped/cyclic peptides of protein M of SARS-CoV Urbani [1]: 0.5 | Binding of serum 1b to linear peptides of protein M of SARS-CoV Urbani [1]: 0.2 | Binding of serum 1b to looped/cyclic peptides of protein M of SARS-CoV Urbani [1]: 0.5 | Binding of serum 2 to linear peptides of protein M of SARS-CoV Urbani [1]: 0.7 | Binding of serum 2 to looped/cyclic peptides of protein M of SARS-CoV Urbani [1]: 0.6 | Binding of serum 6 to linear peptides of protein M of SARS-CoV Urbani [1]: 0.2 | Binding of serum 6 to looped/cyclic peptides of protein M of SARS-CoV Urbani [1]: 0.8 | Binding of serum 37 to linear peptides of protein M of SARS-CoV Urbani [1]: 0.5 | Binding of serum 37 to looped/cyclic peptides of protein M of SARS-CoV Urbani [1]: 0.7 | Binding of serum 62 to linear peptides of protein M of SARS-CoV Urbani [1]: 0.7 | Binding of serum 62 to looped/cyclic peptides of protein M of SARS-CoV Urbani [1]: 0.6 | Binding of serum London to linear peptides of protein M of SARS-CoV Urbani [1]: 0.3 | Binding of serum London to looped/cyclic peptides of protein M of SARS-CoV Urbani [1]: 0.4 | Binding of serum SARS-green to linear peptides of protein M of SARS-CoV Urbani [1]: 0.3 | Binding of serum SARS-green to looped/cyclic peptides of protein M of SARS-CoV Urbani [1]: 0.4 | Binding of serum SARS-yellow to linear peptides of protein M of SARS-CoV Urbani [1]: 0.0 | Binding of serum SARS-yellow to looped/cyclic peptides of protein M of SARS-CoV Urbani [1]: 0.7 | Binding of Control Serum Blood-Bank to Looped peptides of the protein M of SARS-CoV Urbani [2]: 0.7 | Binding of Control serum Blood-bank to linear peptides of the protein M of SARS-CoV Urbani [2]: 0.5 | Binding of Control serum LUMC to linear peptides of the protein M of SARS-CoV Urbani [2]: 0.2 | Binding of Control serum LUMC to looped peptides of the protein M of SARS-CoV Urbani [2]: 0.7 | Rabbit serum linear peptides [3]: 0.1 | Rabbit serum looped peptides [3]: 0.3

DTIVVTEGDGISTPK
Binding of serum 1a to linear peptides of protein X1 of SARS-CoV Urbani [1]: 0.5 | Binding of serum 1a to looped/cyclic peptides of protein X1 of SARS-CoV Urbani [1]: 0.3 | Binding of serum 1b to linear peptides of protein X1 of SARS-CoV Urbani [1]: 0.4 | Binding of serum 1b to looped/cyclic peptides of protein X1 of SARS-CoV Urbani [1]: 0.2 | Binding of serum 2 to linear peptides of protein X1 of SARS-CoV Urbani [1]: 0.3 | Binding of serum 2 to looped/cyclic peptides of protein X1 of SARS-CoV Urbani [1]: 0.1 | Binding of serum 6 to linear peptides of protein X1 of SARS-CoV Urbani [1]: 0.4 | Binding of serum 6 to looped/cyclic peptides of protein X1 of SARS-CoV Urbani [1]: 0.2 | Binding of serum 37 to linear peptides of protein X1 of SARS-CoV Urbani [1]: 0.4 | Binding of serum 37 to looped/cyclic peptides of protein X1 of SARS-CoV Urbani [1]: 0.3 | Binding of serum 62 to linear peptides of protein X1 of SARS-CoV Urbani [1]: 0.3 | Binding of serum 62 to looped/cyclic peptides of protein X1 of SARS-CoV Urbani [1]: 0.3 | Binding of serum London to linear peptides of protein X1 of SARS-CoV Urbani [1]: 0.2 | Binding of serum London to looped/cyclic peptides of protein X1 of SARS-CoV Urbani [1]: 0.2 | Binding of serum SARS-green to linear peptides of protein X1 of SARS-CoV Urbani [1]: 0.2 | Binding of serum SARS-green to looped/cyclic peptides of protein X1 of SARS-CoV Urbani [1]: 0.1 | Binding of serum SARS-yellow to linear peptides of protein X1 of SARS-CoV Urbani [1]: 0.1 | Binding of serum SARS-yellow to looped/cyclic peptides of protein X1 of SARS-CoV Urbani [1]: 0.1 | Binding of Control Serum Blood-Bank to Looped peptides [2]: 0.4 | Binding of Control serum Blood-bank to linear peptides [2]: 0.4 | Binding of Control serum LUMC to linear peptides [2]: 0.3 | Binding of Control serum LUMC to looped peptides [2]: 0.3 | Binding of a rabbit serum to linear peptides [3]: 0.1 | Binding of a rabbit serum to looped peptides [3]: 0.5

DYVVVHGYFTEVYYQ
Binding of serum 1a to linear peptides of protein X1 of SARS-CoV Urbani [1]: 0.6 | Binding of serum 1a to looped/cyclic peptides of protein X1 of SARS-CoV Urbani [1]: 0.6 | Binding of serum 1b to linear peptides of protein X1 of SARS-CoV Urbani [1]: 0.5 | Binding of serum 1b to looped/cyclic peptides of protein X1 of SARS-CoV Urbani [1]: 0.5 | Binding of serum 2 to linear peptides of protein X1 of SARS-CoV Urbani [1]: 0.4 | Binding of serum 2 to looped/cyclic peptides of protein X1 of SARS-CoV Urbani [1]: 0.5 | Binding of serum 6 to linear peptides of protein X1 of SARS-CoV Urbani [1]: 0.4 | Binding of serum 6 to looped/cyclic peptides of protein X1 of SARS-CoV Urbani [1]: 0.3 | Binding of serum 37 to linear peptides of protein X1 of SARS-CoV Urbani [1]: 0.6 | Binding of serum 37 to looped/cyclic peptides of protein X1 of SARS-CoV Urbani [1]: 0.7 | Binding of serum 62 to linear peptides of protein X1 of SARS-CoV Urbani [1]: 0.4 | Binding of serum 62 to looped/cyclic peptides of protein X1 of SARS-CoV Urbani [1]: 0.7 | Binding of serum London to linear peptides of protein X1 of SARS-CoV Urbani [1]: 0.2 | Binding of serum London to looped/cyclic peptides of protein X1 of SARS-CoV Urbani [1]: 0.2 | Binding of serum SARS-green to linear peptides of protein X1 of SARS-CoV Urbani [1]: 0.3 | Binding of serum SARS-green to looped/cyclic peptides of protein X1 of SARS-CoV Urbani [1]: 0.3 | Binding of serum SARS-yellow to linear peptides of protein X1 of SARS-CoV Urbani [1]: 0.3 | Binding of serum SARS-yellow to looped/cyclic peptides of protein X1 of SARS-CoV Urbani [1]: 0.5 | Binding of Control Serum Blood-Bank to Looped peptides [2]: 0.5 | Binding of Control serum Blood-bank to linear peptides [2]: 0.5 | Binding of Control serum LUMC to linear peptides [2]: 0.7 | Binding of Control serum LUMC to looped peptides [2]: 0.7 | Binding of a rabbit serum to linear peptides [3]: 0.1 | Binding of a rabbit serum to looped peptides [3]: 0.6

Reference: patent publication US20070128217A1 (priority 2003, published 2007)
